Assay results published in patent US20030203372A1, “Analysis method” (priority 2000, published 2003).

How the values were obtained:
[1] = Hypoxia response of the referenced genes/sequences, summary in cross-reference Table 26; type: cell-based, human; settings: direction of expression change of the gene/sequence in response to hypoxia
[2] = system: primary human cell cultures (11 cell types); assay: Custom gene array, 11 human cell types in normoxia or hypoxia for 6 hr and 18 hr; type: cell-based
Protocol: Equivalent cultures of non-immortalized, non-transformed primary human cells of 10 distinct types, were cultured in either normoxia or were exposed to hypoxia for 6 hr and 18 hr, and gene expression changes were determined. […] Moreover, unlike the vast majority of information in the public domain relating to genes responsive to hypoxia, all of these cells were human and were cultured without any modifications following isolation from the human donors.
A non-primary cell type (#9) was used to represent neurons, since primary human neurons are difficult to source. Therefore a total of 11 cell types are compared. It should be noted that RNA from hepatocytes at the […] timepoint of hypoxia was not available for this work.
Each RNA sample was hybridised to duplicate or triplicate arrays, to ensure reproducible data, and was analysed using GeneSpring software. Data from replicate arrays were merged during analysis to generate mean values. Data normalisation was achieved per-array using the aforementioned list of control genes, such that differences in RNA labelling or hybridization due to experimental variation were corrected by referencing each gene to the mean value of the reference genes on the same array. Also, for each gene, expression values were obtained which represent the value in each experimental condition (e.g. macrophages 6 hr hypoxia) as compared to the median of value of that gene throughout the full range of experimental conditions (i.e. from all cell types). […] This is common in microarray data analysis.

In the case of Vascular endothelial growth factor, the Hypoxia response [1] is reported as “Increase”.

Work on p1G10 yielded a mRNA expression level ([2]; cell type #1, HY (hypoxia) 6 hr) of 0.61, a mRNA expression level ([2]; cell type #1, HY (hypoxia) 18 hr) of 1.52 and a mRNA expression level ([2]; cell type #1, NO (normoxia)) of 1.01. It also gave a mRNA expression level ([2]; cell type #2, HY (hypoxia) 6 hr) of 1.76, a mRNA expression level ([2]; cell type #2, HY (hypoxia) 18 hr) of 1.65 and a mRNA expression level ([2]; cell type #2, NO (normoxia)) of 1.69. It also gave a mRNA expression level ([2]; cell type #3, HY (hypoxia) 6 hr) of 3.58, a mRNA expression level ([2]; cell type #3, HY (hypoxia) 18 hr) of 2.49 and a mRNA expression level ([2]; cell type #3, NO (normoxia)) of 2.01. It also gave a mRNA expression level ([2]; cell type #4, HY (hypoxia) 6 hr) of 1.13, a mRNA expression level ([2]; cell type #4, HY (hypoxia) 18 hr) of 0.99 and a mRNA expression level ([2]; cell type #4, NO (normoxia)) of 1.32. The mRNA expression level ([2]; cell type #5, HY (hypoxia) 6 hr) was 0.65, the mRNA expression level ([2]; cell type #5, NO (normoxia)) was 0.44 and the mRNA expression level ([2]; cell type #6, HY (hypoxia) 6 hr) was 0.62. It also gave a mRNA expression level ([2]; cell type #6, NO (normoxia)) of 0.44.

In the case of Endothelin 1, the Hypoxia response [1] is reported as “Repression”.

With Alpha-2-macroglobulin the Hypoxia response [1] was “Repression”.

For Osteopontin, the Hypoxia response [1] was “Increase”.
